Literature values as cited in patent US20260263387A1, “INTRANASAL EPINEPHRINE FORMULATIONS AND METHODS OF USE” (ARS Pharmaceuticals Operations, Inc., priority 2024, published 2026).

Compound: CNC[C@H](O)c1ccc(O)c(O)c1 [epinephrine, (R)-4-(1-Hydroxy-2-(methylamino)ethyl)benzene-1,2-diol]
- blood level of epinephrine (intranasal dose level of 2.5 mg and below (0.3 mg, 0.6 mg, 1.25 mg, or 2.5 mg)): no blood level
- significant systemic absorption of epinephrine via the IN route (intranasal, Srisawat): observed only at 5 mg
